Source: article PMC6008493, “Thioamide substitution to probe the hydroxyproline recognition of VHL ligands” (Bioorganic & Medicinal Chemistry, 2018)
Like-named read-outs stand apart in the source and are kept apart here.

Legend:
[1] = Quantification of ligand trans and cis isomers in solution by NMR; type: physicochemical; settings: free ligand in solution
Source text: We next evaluated the impact of thioamide substitutions to the n → π^∗ interaction in the ligand free state in solution. This interaction is only possible when the Hyp (thio)amide group is in the trans isomer conformation (Fig. 1A). Thus, the ratio between the trans and cis isomers at equilibrium can be used to infer the strength of the n → π^∗ interaction.[13]
Quantification of ligands trans and cis isomers in solution.

[2] = biological target: T1, VBC protein (VHL, elongin B, elongin C) (Homo sapiens, UniProt P40337); experiment: Competitive fluorescence polarization (FP) binding assay displacing FAM-labelled HIF-1α peptide
T1 construct: made in house
Method: Control wells contained VBC and peptide in the absence of compound (maximum signal), and peptide in the absence of protein (background signal). Data were obtained in triplicate and the percentage of displacement was determined and graphed against log[VHL inhibitors]. Average IC50 values and the standard error of the mean (SEM) were determined for each titration using Prism 6. Dissociation constants Kd were back-calculated from the measured IC50 values using a displacement binding model, as described previously.^6

[3] = biological target: VBC complex (VHL, elongin B, elongin C) (Homo sapiens, UniProt P40337); experiment: Isothermal titration calorimetry (ITC) direct titration; settings: for ΔH: ITC enthalpy of binding; for ΔH / Kd: 25°C; for Kd: read-out: Kd ITC, pH 7, 3% DMSO
[4] = back-calculated from measured IC50, 15 nM VBC, 10 nM FAM-HIF-1α peptide, pH 7, read-out: Kd FP
[5] = relative to unmodified ligand 1

## CC(=O)N[C@@H](C)C(=O)N1C[C@H](O)C[C@H]1C(=S)NCc1ccc(-c2scnc2C)cc1 [compound 2, N-((S)-1-((2S,4R)-4-Hydroxy-2-((4-(4-methylthiazol-5-yl)benzyl)carbamothioyl)pyrrolidin-1-yl)-1-oxopropan-2-yl)acetamide]
[1]
  trans:cis (%) - cis isomer: 11%
  trans:cis (%) - trans isomer: 89%

## CC(=O)N[C@@H](C)C(=S)N1C[C@H](O)C[C@H]1C(=S)NCc1ccc(-c2scnc2C)cc1 [compound 4, N-((S)-1-((2S,4R)-4-hydroxy-2-((4-(4-methylthiazol-5-yl)benzyl)carbamothioyl)pyrrolidin-1-yl)-1-thioxopropan-2-yl)acetamide]
[2]; [4]
  Kd: > 13 µM
[2]; text summary of FP and ITC, read-out: Kd
  Kd: > 10 µM
[1]
  trans:cis (%) - cis isomer: 10%
  trans:cis (%) - trans isomer: 90%
[3]
  ΔH: -2.56 ± 0.01 kcal/mol
  Kd: 21.6 ± 0.8 µM

## CC(=O)N[C@@H](C)C(=O)N1C[C@H](O)C[C@H]1C(=O)NCc1ccc(-c2scnc2C)cc1 [compound 1]
[1]
  trans:cis (%) - cis isomer: 8%
  trans:cis (%) - trans isomer: 92%

## CC(=O)N[C@@H](C)C(=S)N1C[C@H](O)C[C@H]1C(=O)NCc1ccc(-c2scnc2C)cc1 [compound 3, (2S,4R)-1-((S)-2-Acetamidopropanethioyl)-4-hydroxy-N-(4-(4-methylthiazol-5-yl)benzyl)pyrrolidine-2-carboxamide]
[2]; [4]
  Kd: 1 ± 0.4 µM
[2]; [5]
  loss in binding affinity by FP: twofold
[1]
  trans:cis (%) - cis isomer: 6%
  trans:cis (%) - trans isomer: 94%
[3]
  ΔH: -6.79 ± 0.01 kcal/mol
  Kd: 0.76 ± 0.02 µM
[3]; [5]
  loss in binding affinity by ITC: twofold
